Source: paper PMC12828148, “Engineered cyclic peptide targeting ITGA5 disrupts tumor–stroma interaction to overcome desmoplasia and resistance in pancreatic ductal adenocarcinoma” (Acta Pharmaceutica Sinica. B, 2025)
Peptide text beside a SMILES is read from it.

Key:
human integrin α5β1 = target: T1, human integrin α5β1 (Homo sapiens, UniProt P05556+P08648); assay: ITGA5 competition study (α5β1 binding to FN-coated plate, ELISA); details: human recombinant α5β1 on FN-coated plate, increasing peptide concentrations
T1 construct: purchased RnD (printed for the alanine-replacement peptide array, not for the ELISA itself)
Description: To examine the affinity of the peptide to the target ITGA5, a 96 well MaxiSorp™ (Thermo Scientific) was coated with 100 μL FN (Advanced Biomatrix) at 1 μg/mL by overnight incubation at 4 °C. Next, the plate was washed with DPBS (Lonza) and blocked with 5% bovine serum albumin (BSA) in DPBS for at least 1 h at RT. In the meantime, mentioned concentrations of the peptides were mixed with 2 μg/mL human integrin α5β1 in DPBS with Mg^2+ and Ca^2+. The mixture was then set to rest for 30 min at RT. After blocking with 5% BSA, the plate was washed with DPBS. The mixture of integrin α5β1 and peptide was transferred to a well plate and incubated for 1 h at RT. Next, the plate was washed three times with PBS with 0.1% Tween 20 (PBS-T) and then mouse anti-human CD49e (RnD Systems) was added. After 1 h of incubation, plate was washed and the secondary peroxidase labeled antibody was added and incubated for 1 h at RT. After washing with PBS-T, the plate was quickly developed with 3,3′,5,5′-tetramethylbenzidine (TMB) (50 μL per well) and incubated for 5 min at RT in the dark. The reaction was stopped with 3 mol/L H2SO4 (50 μL per well) and the absorbance was measured at 450 nm with plate reader (Tecan).

hPSCs = assay: Cell viability, Alamar blue assay; type: cell-based, human
Description: We investigated the inhibitory effect of both cyclic and linear peptides on PSC activation and signaling. To achieve this, PSCs were seeded and treated with TGF-β and peptides for 48 h (protein expression) or 24 h (gene expression). We also tested the effect of the peptide on the cell viability using Alamar blue assay and found no toxicity (Supporting Information Fig. S3A). […] To quantitate that, we performed Western blot analysis and confirmed the observed effect via immunostaining (Fig. 2B and C; Fig. S3B). The details of the antibodies used can be found in Supporting Information Table S2. […] After obtaining these effects, we focused on cyAV3.3 and examined its inhibitory effects on TGF-β1-stimulated PSCs using qPCR and an RT[2] profiler PCR array for ECM and adhesion receptors (Fig. 2D). […] The details of primers for all genes can be found in Supporting Information Table S3. […] In contrast, cyAV3.3 induced the gene expression of ECM-degrading proteins such as MMP10 and ADAMTS-13 (Supporting Information Fig. S4).

[1] = system: hPSC activated with TGF-β; assay: Inhibition of TGF-β-induced PSC activation (immunocytochemical staining, Western blot); type: cell-based, human; details: 5 ng/mL TGF-β, 48 h, peptides at 20 and 50 μmol/L
Description: secondary peroxidase labeled antibody was added and incubated for 1 h at RT. The HRP signal was developed using standard chemiluminescence kit and the signal was measured.
To evaluate the stability, 20 µmol/L peptide was incubated in 50% human plasma at biological temperature 37 °C for 1, 2, and 24 h. After incubation, plasma was precipitated by adding equal volume of 4% trichloroacetic acid (TCA) and rested on ice for 10 min. As control (or 0h), precipitation was performed immediately after mixing the peptide and plasma. Supernatant was collected after centrifugation at 13,300 × g and assessed using reversed phase high performance liquid chromatography (HPLC) with 5%, 95%, and 99.9% acetonitrile in de-gassed water with 0.1% trifluoroacetic acid as eluents. The remaining peptide was analyzed at a wavelength 280 nm.
Quantitative real-time PCR
To examine the effect of peptides on the gene expression of hPSC activation markers, cells were seeded into a 12 well plate at a seeding density of 50,000 cells/well. After overnight incubation, cells were starved for 24 h, then treated with human recombinant 5 ng/mL TGF-β (Peprotech, Hamburg, Germany) and […] peptide. After 24 h of the incubation, cells were lysed and total RNA was isolated using GenElute™ Mammalian Total RNA Miniprep Kit (Sigma–Aldrich) and the RNA concentration was measured using a NanoDrop® ND-1000 Spectrophotometer (Thermo Scientific, Waltham, USA). cDNA was synthesized with iScript™ cDNA Synthesis Kit (BioRad, Veenendaal, The Netherlands), and 10 ng cDNA was used for each PCR reaction. […] Quantitative real time PCR was performed with 2× SensiMix SYBR and Fluoroscein Kit (Bioline GmbH, Luckenwalde, Germany) using a BioRad CFX384 Real-Time PCR detection system (BioRad). […]
To evaluate the effect of peptides on the protein expression of hPSC activation markers, hPSCs were seeded into a 12 well plate at seeding density 50,000 cells/well. […] Proteins were detected with […]
medium. […] Images were analyzed using […]
secondary fluorescence-labeled antibody diluted in PBS. […]

C[C@@H]1NC(=O)[C@H](CCCNC(=N)N)NC(=O)[C@H](Cc2ccc(O)cc2)NC(=O)[C@H](Cc2ccc(O)cc2)NC(=O)[C@H](CCCNC(=N)N)NC(=O)CNC(=O)[C@H](CCCCN)NC(=O)[C@H](Cc2ccc(O)cc2)NC(=O)[C@H]([C@@H](C)O)NC1=O [cyAV3.3] (cyclo(ATYKGRYYR))
blocking of FN-α5β1 interaction, cyclic versus linear (human integrin α5β1): blocked the interaction significantly stronger than AV3.3 | effect on cell viability (hPSCs): no toxicity | inhibition of downstream signaling p-FAK ([1]; Western blot): more inhibition | inhibition of PSC activation by TGF-β1 (expression of α-SMA and collagen-1) ([1]; immunostaining and Western blot): much stronger than AV3.3
